The numbers were not newly measured in patent publication US12234263B2, “Influenza vaccines” (InvVax, Inc., priority 2016, dated 2025), which cites them from elsewhere.

The test system of this data set is CD8 T-cell. Particulars: BALB/C; worldwideweb.fludb.org.

On to TYQRTRALV [SEQ ID NO: 37], for which the “experimentally validated CD8 T-cell epitope” value is given as “experimentally validated BALB/C influenza A virus CD8 T-cell epitope”.
